Laboratory results taken from patent publication US9868748B2, “Thiazolopyrrolidine inhibitors of ROR- γ” (Vitae Pharmaceuticals, Inc., priority 2013, dated 2018).
Like-named read-outs stand apart in the source and are kept apart here.

Experiments:
[1] = molecular target: recombinant RORγ Ligand Binding Domain (LBD) protein (Homo sapiens (Human), UniProt P51449); assay: Radio-Ligand RORγ Binding Assay (Assay 1); details: competition with 25-hydroxy [26,27-3H]-cholesterol, SPA, read-out: RORγ Binding Ki Range*
recombinant RORγ Ligand Binding Domain (LBD) protein, sequence (P51449 269-508): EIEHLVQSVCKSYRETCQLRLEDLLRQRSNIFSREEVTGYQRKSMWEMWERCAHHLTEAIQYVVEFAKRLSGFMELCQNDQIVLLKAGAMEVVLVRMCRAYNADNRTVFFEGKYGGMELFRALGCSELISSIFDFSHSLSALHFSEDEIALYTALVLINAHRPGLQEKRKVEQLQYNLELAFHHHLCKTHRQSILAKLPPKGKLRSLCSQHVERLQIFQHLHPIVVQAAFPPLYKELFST
Method in brief: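 Recombinant human RORγ ligand binding domain (6×His-GST fusion, 24 nM stock) competed with tritiated 25-hydroxycholesterol (8.6 nM stock) in HEPES buffer pH 7.4 with detergents and DTT; poly-Lys YSi SPA beads, room temperature, tritium SPA signal. Four-parameter IC50 from semi-log dilutions, normalised to DMSO and 10 μM T0901317, then Ki via KD equation.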

[2] = molecular target: full-length RORγt in Jurkat cells (Homo sapiens (Human), UniProt P51449); assay: RORγt 5xRORE Assay in Jurkat Cells (Assay 2); assay type: cell-based; details: Nanoluc luciferase reporter, 16-18 hrs
full-length RORγt in Jurkat cells, sequence (P51449 other isoform, or with tags, fused parts or gaps): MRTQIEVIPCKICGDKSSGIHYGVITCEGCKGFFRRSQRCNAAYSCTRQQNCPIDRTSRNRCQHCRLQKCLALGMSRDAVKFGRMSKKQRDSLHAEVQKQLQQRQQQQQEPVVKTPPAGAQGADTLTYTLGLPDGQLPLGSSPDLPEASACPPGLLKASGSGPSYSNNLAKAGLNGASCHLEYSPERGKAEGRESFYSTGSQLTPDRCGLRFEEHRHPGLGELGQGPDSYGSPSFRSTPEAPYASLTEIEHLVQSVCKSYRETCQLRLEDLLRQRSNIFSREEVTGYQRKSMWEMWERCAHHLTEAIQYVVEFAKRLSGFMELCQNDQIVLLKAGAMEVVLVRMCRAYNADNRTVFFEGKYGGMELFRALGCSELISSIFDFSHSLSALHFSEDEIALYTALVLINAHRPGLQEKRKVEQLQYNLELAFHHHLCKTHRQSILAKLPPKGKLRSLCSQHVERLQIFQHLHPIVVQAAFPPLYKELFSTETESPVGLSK
Method in brief: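 Inverse agonist activity was read as NanoGlo luminescence from conditioned medium after 16–18 h compound exposure (37 °C, 0.1% DMSO final). The cells were Jurkat, transiently transfected with RORγt and a secNluc reporter carrying five RORE repeats, seeded 80,000 per well in delipidated-serum RPMI.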

[3] = Table 9, read-out: RORγt5X IC50 Range*
[4] = Table 8, read-out: RORγt5X IC50 Range*

SMILES | Ki ([1]; Table 9) | IC50 [2, 3] | Ki ([1]; Table 8) | IC50 [2, 4]
CC(C)[C@H]1c2nc(C(=O)NCc3ccc(S(C)(=O)=O)cc3)sc2CN1Cc1ccc(C(F)(F)F)cc1 | < 0.1 µM | < 0.1 µM |  | 
CCS(=O)(=O)c1ccc(CC(=O)Nc2nc3c(s2)CN(C[C@H]2CC[C@@H](C(F)(F)F)N(C)C2)[C@H]3C(C)C)cc1 (relative stereo) | < 0.1 µM | > 1 µM |  | 
CCS(=O)(=O)c1ccc(CC(=O)Nc2nc3c(s2)CN([C@@H](C)c2c(F)cc(Cl)cc2F)[C@H]3C(C)C)cc1 (single isomer, unassigned) | < 0.1 µM | < 0.1 µM |  | 
CCS(=O)(=O)c1ccc(CNC(=O)c2nc3c(s2)CN(C[C@@H]2CN(C(=O)OC(C)(C)C)CCO2)[C@H]3C(C)C)cc1 [I-J5] |  |  | < 0.1 µM | < 0.1 µM
CC[C@H](C)[C@H]1c2nc(NC(=O)Cc3ccc(S(C)(=O)=O)cc3)sc2CN1Cc1ccc(Cl)cc1 [I-H1, N—((S)-4-((S)-sec-butyl)-5-(4-chlorobenzyl)-5,6-dihydro-4H-pyrrolo[3,4-d]thiazol-2-yl)-2-(4-(methylsulfonyl)phenyl)acetamide] |  |  | < 0.1 µM | < 0.1 µM
CCS(=O)(=O)c1ccc(CNC(=O)c2nc3c(s2)CN(Cc2ccc(OC(F)F)cc2)[C@H]3C(C)C)cc1 [I-J6] |  |  | < 0.1 µM | < 0.1 µM
CCS(=O)(=O)c1ccc(CC(=O)Nc2nc3c(s2)CN(Cc2ccc(C(F)(F)F)nc2)[C@H]3C(C)C)cc1 [I-A62] |  |  | < 0.1 µM | < 0.1 µM
CCS(=O)(=O)c1ccc(CC(=O)Nc2nc3c(s2)CN(Cc2ccc(C#N)c(F)c2)[C@H]3C(C)C)cc1 [I-A4] |  |  | < 0.1 µM | < 0.1 µM
CC(C)[C@H]1c2nc(NC(=O)Cc3ccc(Cl)cc3)sc2CN1Cc1ccc(Cl)cc1 | < 0.1 µM | > 1 µM |  | 
CCS(=O)(=O)c1ccc(CC(=O)Nc2nc3c(s2)CN(Cc2ccc(Br)cc2)[C@H]3C(C)C)cc1 | < 0.1 µM | < 0.1 µM |  | 
CC(C)[C@@H]1c2nc(NC(=O)Cc3ccc(S(C)(=O)=O)cc3)sc2CN1Cc1ccc(Cl)cc1 | 0.1 to 1 µM | 0.1 to 1 µM |  | 
CCS(=O)(=O)c1ccc(CC(=O)Nc2nc3c(s2)CN([C@H]2COc4cc(Cl)ccc42)[C@H]3C(C)C)cc1 (relative stereo) | < 0.1 µM | < 0.1 µM |  | 
CC(C)Oc1ccc(CC(=O)Nc2nc3c(s2)CN(Cc2ccc(Cl)cc2)[C@H]3C(C)C)cc1 | 0.1 to 1 µM | > 1 µM |  | 
CC(C)[C@H]1c2nc(NC(=O)Cc3ccc(S(C)(=O)=O)cc3)sc2CN1[C@H](C)c1ccc(C#N)c(F)c1 [I-B11] |  |  | < 0.1 µM | < 0.1 µM
CC(C)[C@H]1c2nc(NC(=O)Cc3ccc(S(=O)(=O)NC4CC4)cc3)sc2CN1Cc1ccc(Cl)cc1 [I-G1, (S)—N-(5-(4-chlorobenzyl)-4-isopropyl-5,6-dihydro-4H-pyrrolo[3,4-d]thiazol-2-yl)-2-(4-(N-cyclopropylsulfamoyl)phenyl)acetamide] |  |  | < 0.1 µM | < 0.1 µM
CC(C)[C@H]1c2nc(C(=O)NCc3ccc(S(C)(=O)=O)cc3)sc2CN1Cc1ccc(OC(F)F)cc1 [I-K2] |  |  | < 0.1 µM | < 0.1 µM
CCS(=O)(=O)c1ccc(CC(=O)Nc2nc3c(s2)CN([C@@H](C)c2ccc(C#N)cn2)[C@H]3C(C)C)cc1 (single isomer, unassigned) | < 0.1 µM | < 0.1 µM |  | 
CCS(=O)(=O)c1ccc(CC(=O)Nc2nc3c(s2)CN(C[C@H]2CC[C@](C)(OC)CC2)[C@H]3C(C)C)nc1 (single isomer, unassigned) | < 0.1 µM | < 0.1 µM |  | 
CCS(=O)(=O)c1ccc(CC(=O)Nc2nc3c(s2)CN(Cc2ccc(C#N)cc2)[C@H]3C(C)C)nc1 [I-C11] |  |  | < 0.1 µM | < 0.1 µM
Cc1cc(CN2Cc3sc(NC(=O)Cc4ccc(C#N)cc4)nc3[C@@H]2C(C)C)ccc1C#N | < 0.1 µM | 0.1 to 1 µM |  | 
CCS(=O)(=O)c1ccc(CC(=O)Nc2nc3c(s2)CN(Cc2ccc(OC)cc2)[C@@H]3C(C)C)cc1 | < 0.1 µM | > 1 µM |  | 
CC(C)[C@H]1c2nc(NC(=O)Cc3ccccc3)sc2CN1Cc1ccc(Cl)cc1 | 0.1 to 1 µM | > 1 µM |  | 
CCS(=O)(=O)c1ccc(CC(=O)Nc2nc3c(s2)CN([C@H](C)c2ccc(Cl)cc2F)[C@H]3C(C)C)cc1 [I-A38] |  |  | < 0.1 µM | < 0.1 µM
CCS(=O)(=O)c1ccc(CC(=O)Nc2nc3c(s2)CN(Cc2ccc(F)cc2)C3Cc2cccc(Br)c2)cc1 (stereo not drawn) [I-F1, N-(4-(3-bromobenzyl)-5-(4-fluorobenzyl)-5,6-dihydro-4H-pyrrolo[3,4-d]thiazol-2-yl)-2-(4-(ethylsulfonyl)phenyl)acetamide] |  |  | < 0.1 µM | > 1 µM
CC(C)[C@H]1c2nc(NC(=O)Cc3ccc(S(C)(=O)=O)cc3)sc2CN1[C@@H](C)c1ccc(C(F)(F)F)nc1 (single isomer, unassigned) | < 0.1 µM | < 0.1 µM |  | 
CCS(=O)(=O)c1ccc(CC(=O)Nc2nc3c(s2)CN([C@H](C)c2ccc(Br)cc2F)[C@H]3C(C)C)cc1 [I-A24] |  |  | < 0.1 µM | < 0.1 µM

SMILES | Ki ([1]; Table 9) | IC50 [2, 3] | Ki ([1]; Table 8) | IC50 [2, 4]
CCS(=O)(=O)c1ccc(CC(=O)Nc2nc3c(s2)CN(Cc2ccc(=O)n(C)c2)[C@H]3C(C)C)cc1 | < 0.1 µM | 0.1 to 1 µM |  | 
CC(C)[C@H]1c2nc(NC(=O)Cc3ccc(S(C)(=O)=O)cc3)sc2CN1Cc1ccc(Cl)cc1 [I-B1, (S)—N-(5-(4-chlorobenzyl)-4-isopropyl-5,6-dihydro-4H-pyrrolo[3,4-d]thiazol-2-yl)-2-(4-(methylsulfonyl)phenyl)acetamide] |  |  | < 0.1 µM | < 0.1 µM
CCS(=O)(=O)c1ccc(CC(=O)Nc2nc3c(s2)CN(C[C@H]2CN(C(=O)OC(C)(C)C)CCO2)[C@H]3C(C)C)cc1 [I-A41] |  |  | < 0.1 µM | < 0.1 µM
CC(C)[C@H]1c2nc(NC(=O)Cc3ccc(C(C)(C)C#N)cc3)sc2CN1Cc1ccc(Cl)cc1 | < 0.1 µM | 0.1 to 1 µM |  | 
CC(C)[C@H]1c2nc(NC(=O)Cc3ccc(C#N)cc3)sc2CN1Cc1ccc(Cl)cc1 [I-E1, (S)—N-(5-(4-chlorobenzyl)-4-isopropyl-5,6-dihydro-4H-pyrrolo[3,4-d]thiazol-2-yl)-2-(4-cyanophenyl)acetamide] |  |  | < 0.1 µM | 0.1 to 1 µM
CCS(=O)(=O)c1ccc(CC(=O)Nc2nc3c(s2)CN(Cc2ccc(C4CC4)cc2)[C@H]3C(C)C)cc1 [I-A59] |  |  | < 0.1 µM | < 0.1 µM
CCS(=O)(=O)c1ccc(CC(=O)Nc2nc3c(s2)CN(Cc2ccc(C#N)cc2C(F)(F)F)[C@H]3C(C)C)cc1 | < 0.1 µM | > 1 µM |  | 
CCS(=O)(=O)c1ccc(CC(=O)Sc2nc3c(s2)CN(Cc2ccc(Cl)cc2)C3(C)C)cc1 | < 0.1 µM | 0.1 to 1 µM |  | 
CCS(=O)(=O)c1cnc(CNC(=O)c2nc3c(s2)CN(Cc2ccc(C(F)(F)F)cc2)[C@H]3C(C)C)nc1 | < 0.1 µM | 0.1 to 1 µM |  | 
CCS(=O)(=O)c1ccc(CC(=O)Nc2nc3c(s2)CN(CC2CCS(=O)(=O)CC2)[C@H]3C(C)C)cc1 | < 0.1 µM | > 1 µM |  | 
CCS(=O)(=O)c1ccc(CC(=O)Nc2nc3c(s2)CN(Cc2cc(Cl)ccc2Cl)[C@@H]3C(C)C)cc1 | < 0.1 µM | > 1 µM |  | 
CCS(=O)(=O)c1ccc(CC(=O)Nc2nc3c(s2)CN(Cc2ncc(C#N)cc2F)[C@H]3C(C)C)cc1 [I-A46] |  |  | < 0.1 µM | < 0.1 µM
CCS(=O)(=O)c1ccc(CC(=O)Nc2nc3c(s2)CN([C@H](C)c2ncc(Cl)cc2F)[C@H]3C(C)C)cc1 [I-A53] |  |  | < 0.1 µM | < 0.1 µM
CCS(=O)(=O)c1ccc(CC(=O)Nc2nc3c(s2)CN(C[C@@H]2CCCCO2)[C@H]3C(C)C)cc1 (relative stereo) | < 0.1 µM | > 1 µM |  | 
Cc1nnc(-c2ccc(CN3Cc4sc(NC(=O)Cc5ccc(S(C)(=O)=O)cc5)nc4[C@@H]3C(C)C)cc2)o1 | < 0.1 µM | < 0.1 µM |  | 
CCS(=O)(=O)c1ccc(CC(=O)Nc2nc3c(s2)CN(Cc2cccc(Br)c2)[C@@H]3C(C)C)cc1 | < 0.1 µM | > 1 µM |  | 
CCS(=O)(=O)c1ccc(CC(=O)Nc2nc3c(s2)CN(Cc2ccc(C#N)c(Cl)c2)[C@H]3C(C)C)nc1 [I-C10] |  |  | < 0.1 µM | < 0.1 µM
CC[C@@H]1c2nc(NC(=O)Cc3ccc(S(=O)(=O)CC)cc3)sc2CN1Cc1ccc(OC(C)C)cc1 | < 0.1 µM | > 1 µM |  | 
CC(C)[C@@H]1c2nc(NC(=O)Cc3ccc(S(C)(=O)=O)cc3)sc2CN1Cc1cccc(Br)c1 | < 0.1 µM | > 1 µM |  | 
CCS(=O)(=O)c1ccc(CNC(=O)c2nc3c(s2)CN(Cc2ccc4c(c2)OC(F)(F)O4)[C@H]3C(C)C)nc1 | < 0.1 µM | < 0.1 µM |  | 
CCS(=O)(=O)c1ccc(CC(=O)Nc2nc3c(s2)CN(Cc2ccc(Cl)cc2)[C@@]3(C)C(C)C)cc1 | < 0.1 µM | < 0.1 µM |  | 
CC(C)[C@@H]1c2nc(NC(=O)Cc3ccc(S(C)(=O)=O)cc3)sc2CN1[C@H](C)c1ccc(OC(F)(F)F)cc1 (single isomer, unassigned) | 0.1 to 1 µM | > 1 µM |  | 
CC[C@@H]1c2nc(NC(=O)Cc3ccc(S(C)(=O)=O)cc3)sc2CN1Cc1cccc(C(F)(F)F)c1 | < 0.1 µM | > 1 µM |  | 
CC(C)[C@H]1c2nc(NC(=O)Cc3ccc(S(N)(=O)=O)cc3)sc2CN1Cc1ccc(C(F)(F)F)cc1 | < 0.1 µM | < 0.1 µM |  | 
CCS(=O)(=O)c1ccc(CC(=O)Nc2nc3c(s2)CN(C[C@H]2CC[C@@H](C(F)(F)F)OC2)[C@H]3C(C)C)cc1 (single isomer, unassigned) | < 0.1 µM | > 1 µM |  | 
